The values below come from ChEMBL document CHEMBL5512668, “Macrocyclic Azapeptide Nitriles: Structure-Based Discovery of Potent SARS-CoV-2 Main Protease Inhibitors as Antiviral Drugs” (J Med Chem, 2024).

Structures are written as SMILES.

Sequence of Procathepsin L (P07711 whole entry): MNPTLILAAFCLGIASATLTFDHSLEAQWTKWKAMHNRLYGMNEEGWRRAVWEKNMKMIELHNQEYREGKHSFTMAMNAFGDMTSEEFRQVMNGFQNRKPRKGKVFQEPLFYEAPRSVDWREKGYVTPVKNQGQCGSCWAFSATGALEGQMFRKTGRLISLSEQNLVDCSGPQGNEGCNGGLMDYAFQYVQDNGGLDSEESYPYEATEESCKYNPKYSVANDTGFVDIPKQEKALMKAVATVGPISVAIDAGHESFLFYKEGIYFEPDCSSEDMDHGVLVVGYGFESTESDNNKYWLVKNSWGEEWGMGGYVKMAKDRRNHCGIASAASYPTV

The first experiment has as its target Replicase polyprotein 1ab (Severe acute respiratory syndrome coronavirus 2) (UniProt P0DTD1). To be noted: dose 1.0 µM, time 65.0 min.
`CN(C(=O)[C@@H](NC(=O)[C@@H](NC(=O)c1cccs1)C(C)(C)C)C1CCCCC1)N(C#N)Cc1cccc(Cl)c1F`: the inhibition – broadly, the change of the read-out against control, counted positive when it falls – was 21%.
On the same count and under the same terms, the same measure for `CN(C(=O)[C@@H]1CCCN1C(=O)[C@@H](NC(=O)c1cccs1)C(C)(C)C)N(C#N)Cc1cccc(Cl)c1F`: 5%.
Same read-out and setting: the same measure for `CN(C(=O)[C@@H]1Cc2ccccc2CN1C(=O)OCc1ccccc1)N(C#N)Cc1ccc(Cl)cc1`: 26%; for `CN(C(=O)[C@H](Cc1ccccc1)NC(=O)C1(Oc2ccc(Cl)cc2Cl)CCC1)N(C#N)Cc1ccc(Cl)cc1`: 8%.
Molecule `CN(C(=O)[C@H](Cc1ccccc1)NC(=O)C(C)(C)Oc1ccc(Cl)cc1Cl)N(C#N)Cc1ccc(Cl)cc1` had an inhibition of 17%.
`CN(C(=O)[C@@H]1Cc2ccccc2CN1C(=O)COc1ccc(Cl)cc1Cl)N(C#N)Cc1ccc(Cl)cc1`: the inhibition turned out to be 11%.
In the case of `CN(C(=O)[C@H](Cc1ccccc1)NC(=O)[C@@H]1Cc2ccccc2CN1C(=O)c1cccs1)N(C#N)Cc1ccc(Cl)cc1`, the inhibition was 21%.
With `CN(C(=O)[C@H](Cc1ccccc1)NC(=O)C1(Oc2ccc(Cl)cc2Cl)CCCCC1)N(C#N)Cc1ccc(Cl)cc1`, the inhibition is 7%.
Still for that read-out and setting: to `CN(C(=O)[C@H](Cc1ccc(Cl)cc1)NC(=O)[C@@H](NC(=O)c1cccs1)C(C)(C)C)N(C#N)Cc1cccc(Cl)c1F` belongs 6%; to `CC(C)c1ccc(OCC(=O)N[C@@H](Cc2ccccc2)C(=O)N(C)N(C#N)Cc2ccc(Cl)cc2)cc1`, 21%.
With `COc1cccc(NC2(C(=O)N[C@@H](Cc3ccccc3)C(=O)N(C)N(C#N)Cc3ccc(Cl)cc3)CCCC2)c1`, the inhibition is 12%.
Turning to `CN(C(=O)[C@H](Cc1ccccc1)NC(=O)[C@@H]1CCCN1C(=O)c1cccs1)N(C#N)Cc1ccc(Cl)cc1`, the inhibition worked out at 13%.
On the same count and under the same terms, the same measure for `CN(C(=O)[C@@H](NC(=O)[C@@H](NC(=O)c1cccs1)C(C)(C)C)C(c1ccccc1)c1ccccc1)N(C#N)Cc1cccc(Cl)c1F`: 10%; for `CN(C(=O)[C@H](Cc1ccccc1)NC(=O)OCc1ccccc1)N(C#N)CC1CCNC1=O` (some centres undefined): 21%.

The next experiment has as its target Procathepsin L (Homo sapiens, UniProt P07711). Briefly: Inhibition of human cathepsin L using Z-Phe-Arg-pNA as substrate incubated for 60 mins.
Conditions: not given
For the molecule `CN(C(=O)[C@H](Cc1cccc(F)c1)NC(=O)[C@@H](NC(=O)c1cccs1)C(C)(C)C)N(C#N)Cc1cccc(Cl)c1F`, the Ki (usually the dissociation constant of the complex between target and ligand, obtained from inhibition or displacement) is 178 nM.
Molecule `CN(C(=O)[C@H](Cc1cccc(Cl)c1)NC(=O)[C@@H](NC(=O)c1cccs1)C(C)(C)C)N(C#N)Cc1cccc(Cl)c1F` had a Ki of 163 nM. This Ki and that of the molecule before are within 1.5-fold of each other.
`CN(C(=O)[C@H](Cc1ccccc1Cl)NC(=O)[C@@H](NC(=O)c1cccs1)C(C)(C)C)N(C#N)Cc1cccc(Cl)c1F` came in with a Ki of 56.1 nM. This Ki is about 2.9-fold lower than that of the molecule before.

Another experiment addresses Replicase polyprotein 1ab (Severe acute respiratory syndrome coronavirus 2, UniProt P0DTD1).
Conditions: not given
For `CN1C(=O)[C@H](Cc2ccccc2)NC(=O)COCCOc2ccc(F)cc2CN1C#N`, the IC50 (commonly the concentration at which inhibition is half-maximal) came out at 226 nM. In other words, the sub-micromolar range.
As to `CN(C(=O)[C@H](Cc1ccccc1)NC(=O)OCc1ccccc1)N(C#N)Cc1cccc(Br)c1`, the IC50 was 86 nM.
Same read-out and setting: the same measure for `COc1ccc(Cl)c(F)c1CN(C#N)N(C)C(=O)[C@H](Cc1ccccc1)NC(=O)OCc1ccccc1`: 392 nM.
Still for that read-out and setting: the same measure for `CN(C(=O)[C@H](Cc1ccccc1)NC(=O)OCc1ccccc1)N(C#N)Cc1ccc(Br)c(Cl)c1F`: 125 nM.
The molecule `CN(C(=O)[C@H](Cc1ccccc1)NC(=O)OCc1ccccc1)N(C#N)Cc1cc(Cl)ccc1F` gave an IC50 of 119 nM.
The molecule `COc1cccc2[nH]c(C(=O)N[C@@H](Cc3ccccc3)C(=O)N(C)N(C#N)Cc3ccc(Cl)cc3)cc12` yielded an IC50 of 23 nM. This IC50 lies about 5.2-fold lower than the previous one.
Same read-out and setting: to `CN(C(=O)[C@H](Cc1ccccc1)NC(=O)OCc1ccccc1)N(C#N)Cc1ccc(Cl)cc1` belongs 260 nM; to `CN(C(=O)[C@H](Cc1ccccc1)NC(=O)OCc1ccccc1)N(C#N)Cc1ccccc1Br`, 188 nM.
The same measure, in the same setting: to `CN(C(=O)[C@H](Cc1ccc(F)cc1)NC(=O)[C@@H](NC(=O)c1cccs1)C(C)(C)C)N(C#N)Cc1cccc(Cl)c1F` belongs 25 nM.
In turn, `CN(C(=O)[C@H](Cc1ccccc1)NC(=O)COc1ccc(F)cc1)N(C#N)Cc1ccc(Cl)cc1` registered an IC50 of 1220 nM.
`CN(C(=O)[C@H](Cc1ccccc1)NC(=O)[C@@H](NC(=O)C1(F)CC1)C(C)(C)C)N(C#N)Cc1ccc(Cl)cc1` registered an IC50 of 50 nM.
The same measure, in the same setting: the same measure for `COc1ccc(CN(C#N)N(C)C(=O)[C@H](Cc2ccccc2)NC(=O)OCc2ccccc2)cc1`: 345 nM.
The molecule `CN(C(=O)[C@H](Cc1cccc(F)c1)NC(=O)[C@@H](NC(=O)c1cccs1)C(C)(C)C)N(C#N)Cc1cccc(Cl)c1F` returned an IC50 of 4 nM.
On to `COc1cccc(OCC(=O)N[C@@H](Cc2ccccc2)C(=O)N(C)N(C#N)Cc2ccc(Cl)cc2)c1`, for which it took 1230 nM to reach half-maximal inhibition (IC50).
The same measure, in the same setting: the same measure for `CN(C(=O)[C@H](Cc1ccccc1)NC(=O)OCc1ccccc1)N(C#N)Cc1cccc(F)c1`: 142 nM.
Consider `CN(C(=O)[C@H](Cc1ccccc1)NC(=O)CCc1ccc(F)c(F)c1)N(C#N)Cc1ccc(Cl)cc1`, for which the IC50 is 1420 nM.
The same measure, in the same setting: the same measure for `CN(C(=O)[C@H](Cc1ccccc1)NC(=O)OCc1ccccc1)N(C#N)Cc1ccsc1`: 416 nM; for `CN1C(=O)[C@H](Cc2ccccc2)N(C(=O)COc2ccc(Cl)cc2Cl)CCCCCOc2ccc(F)cc2CN1C#N`: 48 nM; for `CN(C(=O)[C@H](Cc1ccccc1)NC(=O)COc1cccc(Cl)c1)N(C#N)Cc1ccc(Cl)cc1`: 1060 nM.
Still for that read-out and setting: the same measure for `CN(C(=O)[C@H](Cc1ccccc1)NC(=O)CNc1ccc(F)c(F)c1)N(C#N)Cc1ccc(Cl)cc1`: 343 nM; for `CN(C(=O)[C@H](Cc1ccccc1)NC(=O)OCc1ccccc1)N(C#N)Cc1ccco1`: 206 nM.
Consider `CN(C(=O)[C@H](Cc1ccccc1)NC(=O)OCc1ccccc1)N(C#N)Cc1ccc(Br)cc1Cl`, for which the concentration for half-maximal inhibition (IC50) stood at 143 nM.
The same measure, in the same setting: the same measure for `Cc1csc(C(=O)N[C@H](C(=O)N[C@@H](Cc2ccccc2)C(=O)N(C)N(C#N)Cc2ccc(Cl)cc2)C(C)(C)C)c1`: 71 nM; for `CN(C(=O)[C@H](Cc1ccccc1)NC(=O)COc1ccc(F)c(F)c1)N(C#N)Cc1ccc(Cl)cc1`: 1150 nM; for `CN1C(=O)[C@H](Cc2ccccc2)N(C(=O)COc2ccc(Cl)cc2Cl)CCCCOc2ccc(F)cc2CN1C#N`: 42 nM.
Same read-out and setting: the same measure for `CN(C(=O)[C@H](Cc1ccccc1)NC(=O)OCc1ccccc1)N(C#N)Cc1ccccc1Cl`: 149 nM; for `COc1ccc(NCC(=O)N[C@@H](Cc2ccccc2)C(=O)N(C)N(C#N)Cc2ccc(Cl)cc2)c(Cl)c1`: 673 nM.
Same read-out and setting: the same measure for `COc1ccc(OCC(=O)N[C@@H](Cc2ccccc2)C(=O)N(C)N(C#N)Cc2ccc(Cl)cc2)cc1`: 1230 nM; for `CN(C(=O)[C@H](Cc1cccc(Cl)c1)NC(=O)[C@@H](NC(=O)c1cccs1)C(C)(C)C)N(C#N)Cc1cccc(Cl)c1F`: 9 nM; for `CN(C(=O)[C@H](Cc1ccccc1)NC(=O)OCc1ccccc1)N(C#N)Cc1ccc([N+](=O)[O-])cc1`: 210 nM.
`COc1cccc(CN(C#N)N(C)C(=O)[C@H](Cc2ccccc2)NC(=O)OCc2ccccc2)c1F` came in with an IC50 of 118 nM.
Still for that read-out and setting: the same measure for `CN(C(=O)[C@H](Cc1ccccc1Cl)NC(=O)[C@@H](NC(=O)c1cccs1)C(C)(C)C)N(C#N)Cc1cccc(Cl)c1F`: 26 nM; for `CN1C(=O)[C@H](Cc2ccccc2)N(C(=O)COc2ccc(Cl)cc2Cl)CCCOc2ccc(F)cc2CN1C#N`: 25 nM; for `CN(C(=O)[C@H](Cc1ccccc1)NC(=O)OCc1ccccc1)N(C#N)Cc1ccc(Br)cc1`: 200 nM.
On to `CN(C(=O)[C@H](Cc1ccccc1)NC(=O)C1(NC(=O)c2cccs2)CC1)N(C#N)Cc1ccc(Cl)cc1`, for which the IC50 was 566 nM.
The same measure, in the same setting: the same measure for `CN(C(=O)[C@H](Cc1ccccc1)NC(=O)[C@@H](NC(=O)c1ccc(-c2cccs2)s1)C(C)(C)C)N(C#N)Cc1ccc(Cl)cc1`: 534 nM; for `CN(C(=O)[C@H](Cc1ccccc1)NC(=O)OCc1ccccc1)N(C#N)Cc1ccc(Br)cc1F`: 104 nM; for `CCCS(=O)(=O)N[C@H](C(=O)N[C@@H](Cc1ccccc1)C(=O)N(C)N(C#N)Cc1ccc(Cl)cc1)C(C)(C)C`: 156 nM.
Still for that read-out and setting: to `CN(C(=O)[C@H](Cc1ccccc1)NC(=O)OCc1ccccc1)N(C#N)Cc1ccccc1F` belongs 137 nM.
In turn, `CN(C(=O)[C@H](Cc1ccccc1)NC(=O)COc1ccc(Cl)cc1Cl)N(C#N)Cc1ccc(Cl)cc1` came in with a half-maximal inhibitory concentration (IC50) of 1820 nM.
Turning to `CN(C(=O)[C@H](Cc1ccccc1)NC(=O)OCc1ccccc1)N(C#N)Cc1c(F)cc(Br)cc1F`, half-maximal inhibition (IC50) was put at 81 nM.
Same read-out and setting: to `CN(C(=O)[C@H](Cc1ccccc1)NC(=O)c1cc2cc(Cl)ccc2[nH]1)N(C#N)Cc1ccc(Cl)cc1` belongs 77 nM; to `CN(C(=O)[C@H](Cc1ccccc1)NC(=O)COc1cccc(F)c1Br)N(C#N)Cc1ccc(Cl)cc1`, 1020 nM.
Same read-out and setting: the same measure for `CN(C(=O)[C@H](Cc1ccccc1)NC(=O)COc1ccc(Cl)cc1)N(C#N)Cc1ccc(Cl)cc1`: 1300 nM; for `CN(C(=O)[C@H](Cc1ccccc1)NC(=O)CNc1c(F)cccc1F)N(C#N)Cc1ccc(Cl)cc1`: 987 nM.
On the same count and under the same terms, the same measure for `CN(C(=O)[C@H](Cc1ccccc1)NC(=O)OCc1ccccc1)N(C#N)Cc1cccc(Cl)c1F`: 35 nM; for `CN(C(=O)[C@H](Cc1ccccc1)NC(=O)COc1cccc2ccccc12)N(C#N)Cc1ccc(Cl)cc1`: 1060 nM; for `COc1ccc(OC)c(CN(C#N)N(C)C(=O)[C@H](Cc2ccccc2)NC(=O)OCc2ccccc2)c1`: 826 nM.
For the molecule `CN(C(=O)[C@H](Cc1ccccc1)NC(=O)COc1ccc2c(c1)NC(=O)CC2)N(C#N)Cc1ccc(Cl)cc1`, half-maximal inhibition (IC50) required 960 nM.
`CN(C(=O)[C@H](Cc1ccccc1)NC(=O)OCc1ccccc1)N(C#N)Cc1ccc(Br)c(Cl)c1` displayed an IC50 of 192 nM. Against the preceding molecule, the IC50 is about 5-fold lower.
`CN(C(=O)[C@H](Cc1ccccc1)NC(=O)OCc1ccccc1)N(C#N)Cc1ccc(Br)c(F)c1` returned a 50% inhibitory concentration (IC50) of 206 nM. The IC50 values of the last two molecules are within 1.5-fold of each other.
The same measure, in the same setting: to `CN(C(=O)[C@H](Cc1ccccc1)NC(=O)OCc1ccccc1)N(C#N)Cc1ccc(F)cc1` belongs 294 nM; to `CN(C(=O)[C@H](Cc1ccccc1)NC(=O)CNc1ccc(F)cc1F)N(C#N)Cc1ccc(Cl)cc1`, 952 nM; to `CN(C(=O)[C@H](Cc1ccccc1)NC(=O)[C@@H](Nc1ccc([N+](=O)[O-])cc1[N+](=O)[O-])C(C)(C)C)N(C#N)Cc1ccc(Cl)cc1`, 2250 nM.
Still for that read-out and setting: to `CN(C(=O)[C@H](Cc1ccccc1)NC(=O)[C@@H](NC(=O)C(F)(F)F)C(C)(C)C)N(C#N)Cc1ccc(Cl)cc1` belongs 33 nM; to `CN(C(=O)[C@H](Cc1ccccc1)NC(=O)OCc1ccccc1)N(C#N)Cc1cccc(Cl)c1`, 88 nM; to `COc1c(Cl)cccc1CN(C#N)N(C)C(=O)[C@H](Cc1ccccc1)NC(=O)OCc1ccccc1`, 425 nM.
